Active and inactive are the calls of the source. No rule for the calls is given here.
Tested on: CCRIS mutagenicity, Ames/micronucleus/aberration tests
Test: CCRIS mutagenicity studies
[1] = Test System: AMES SALMONELLA TYPHIMURIUM, Strain/Indicator: TA98, Metabolic Activation: HAMSTER, LIVER, S-9, AROCLOR 1254 (10%), Method: PREINCUBATION
[2] = Test System: AMES SALMONELLA TYPHIMURIUM, Strain/Indicator: TA98, Metabolic Activation: NONE, Method: PREINCUBATION
[3] = Test System: AMES SALMONELLA TYPHIMURIUM, Strain/Indicator: TA98, Metabolic Activation: RAT, LIVER, S-9, AROCLOR 1254 (10%), Method: PREINCUBATION
[4] = Test System: AMES SALMONELLA TYPHIMURIUM, Strain/Indicator: TA100, Metabolic Activation: HAMSTER, LIVER, S-9, AROCLOR 1254 (10%), Method: PREINCUBATION
[5] = Test System: AMES SALMONELLA TYPHIMURIUM, Strain/Indicator: TA100, Metabolic Activation: NONE, Method: PREINCUBATION
[6] = Test System: AMES SALMONELLA TYPHIMURIUM, Strain/Indicator: TA100, Metabolic Activation: RAT, LIVER, S-9, AROCLOR 1254 (10%), Method: PREINCUBATION
[7] = Test System: AMES SALMONELLA TYPHIMURIUM, Strain/Indicator: TA1535, Metabolic Activation: HAMSTER, LIVER, S-9, AROCLOR 1254 (10%), Method: PREINCUBATION
[8] = Test System: AMES SALMONELLA TYPHIMURIUM, Strain/Indicator: TA1535, Metabolic Activation: NONE, Method: PREINCUBATION
[9] = Test System: AMES SALMONELLA TYPHIMURIUM, Strain/Indicator: TA1535, Metabolic Activation: RAT, LIVER, S-9, AROCLOR 1254 (10%), Method: PREINCUBATION
[10] = Test System: AMES SALMONELLA TYPHIMURIUM, Strain/Indicator: TA1537, Metabolic Activation: HAMSTER, LIVER, S-9, AROCLOR 1254 (10%), Method: PREINCUBATION
[11] = Test System: AMES SALMONELLA TYPHIMURIUM, Strain/Indicator: TA1537, Metabolic Activation: NONE, Method: PREINCUBATION
[12] = Test System: AMES SALMONELLA TYPHIMURIUM, Strain/Indicator: TA1537, Metabolic Activation: RAT, LIVER, S-9, AROCLOR 1254 (10%), Method: PREINCUBATION
[13] = Test System: MOUSE LYMPHOMA, Strain/Indicator: L5178Y (TK+/TK-), Metabolic Activation: NONE, Method: SUSPENSION/PLATE
[14] = Test System: AMES SALMONELLA TYPHIMURIUM, Strain/Indicator: TA100, Metabolic Activation: NONE, Method: STANDARD PLATE
[15] = Test System: AMES SALMONELLA TYPHIMURIUM, Strain/Indicator: TA98, Metabolic Activation: RAT, LIVER, S-9, AROCLOR 1254, Method: PREINCUBATION
[16] = Test System: AMES SALMONELLA TYPHIMURIUM, Strain/Indicator: TA100, Metabolic Activation: RAT, LIVER, S-9, AROCLOR 1254, Method: PREINCUBATION

SMILES | mutagenic call [1] | mutagenic call [2] | mutagenic call [3] | mutagenic call [4] | mutagenic call [5] | mutagenic call [6] | mutagenic call [7] | mutagenic call [8] | mutagenic call [9] | mutagenic call [10] | mutagenic call [11] | mutagenic call [12] | other results
C=CC(=O)OCCOCCOCCOCCOC(=O)C=C | inactive; negative | inactive; negative | inactive; negative | inactive; negative | inactive; negative | inactive; negative | inactive; negative | inactive; negative | inactive; negative | inactive; negative | inactive; negative | inactive; negative | mutagenic call (Test System: CHINESE HAMSTER OVARY, Strain/Indicator: CHO-K1-BH4 (HGPRT)/6-THIOGUANINE, Metabolic Activation: NONE, Method: SUSPENSION/PLATE): active; positive; mutagenic call (Test System: CHINESE HAMSTER OVARY, Strain/Indicator: CHO-K1-BH4 (HGPRT), Metabolic Activation: NONE, Method: MONOLAYER): active; positive; mutagenic call (Test System: CHINESE HAMSTER OVARY, Strain/Indicator: CHO-K1-BH4 (HGPRT), Metabolic Activation: NONE, Method: SUSPENSION/PLATE): active; positive; mutagenic call [13]: active; positive
Nc1ccc(N=Nc2ccccc2)c(N)n1 | – | – | – | – | – | – | – | – | – | – | – | – | mutagenic call (End Point: IN VITRO CHROMOSOMAL ABERRATIONS, Test System: CHINESE HAMSTER OVARY CELLS, Metabolic Activation: NONE): active; positive (ploidy changes); mutagenic call (End Point: IN VITRO CHROMOSOMAL ABERRATIONS, Test System: CHINESE HAMSTER OVARY CELLS, Metabolic Activation: RAT, LIVER, S-9, AROCLOR 1254): active; positive; authors reported that all doses were toxic, but were scored because of; mutagenic call [13]: inactive; negative; mutagenic call (Test System: MOUSE LYMPHOMA, Strain/Indicator: L5178Y (TK+/TK-), Metabolic Activation: RAT, LIVER, S-9, AROCLOR 1254, Method: SUSPENSION/PLATE): active; positive; mutagenic call (Test System: UDS RAT HEPATOCYTES, Strain/Indicator: BROMODEOXYURIDINE INCORP, Metabolic Activation: NONE, Method: FLOW CYTOMETRIC ANALYSIS): active; positive; mutagenic call (Test System: UDS RAT HEPATOCYTES, Strain/Indicator: THY INCORP, Metabolic Activation: NONE, Method: AUTORADIOGRAPHY): active; positive
CCOC(=O)CCBr | – | – | – | – | – | – | – | – | – | – | – | – | mutagenic call (End Point: IN VITRO CHROMOSOMAL ABERRATIONS, Test System: CHL CELLS, Metabolic Activation: NONE): active; positive (structural changes); mutagenic call (End Point: IN VITRO CHROMOSOMAL ABERRATIONS, Test System: CHL CELLS, Metabolic Activation: RAT, LIVER, S-9, SODIUM PHENOBARBITAL AND 5,6-BENZOFLAVONE): active; positive (structural changes)
CC(=O)ON(OCc1ccc([N+](=O)[O-])cc1)C(=O)c1ccccc1 | – | – | – | – | – | – | – | – | – | – | – | – | mutagenic call [14]: active; positive; mutagenic call (Test System: AMES SALMONELLA TYPHIMURIUM, Strain/Indicator: TA100, Metabolic Activation: RAT, S-9, AROCLOR, Method: STANDARD PLATE): active; positive
CN(C)CCN(Cc1ccc(Cl)s1)c1ccccn1 | inactive; negative | inactive; negative | inactive; negative | inactive; negative | inactive; negative | inactive; negative | inactive; negative | inactive; negative | inactive; negative | inactive; negative | inactive; negative | inactive; negative | –
CCC(O)CN(CC(O)CC)N=O (stereo not given) | – | – | – | – | – | – | – | – | – | – | – | – | mutagenic call (Test System: CHINESE HAMSTER V-79, Strain/Indicator: V-79/OUABAIN, Metabolic Activation: HAMSTER, HEPATOCYTES, Method: CELL-MEDIATED): inactive; negative
NC1CCC(CC2CCC(N)CC2)CC1 (stereo not given) | inactive; negative | inactive; negative | inactive; negative | inactive; negative | inactive; negative | inactive; negative | inactive; negative | inactive; negative | inactive; negative | inactive; negative | inactive; negative | inactive; negative | –
COc1cc(OC)c2c(c1)O[C@@H]1OC=C[C@H]21 | – | inactive; negative | – | – | active; positive | – | – | – | – | – | – | – | mutagenic call [15]: active; positive; mutagenic call [16]: active; positive
O=C(c1ccccc1)[C@H]1O[C@H]1c1ccc(F)cc1 | – | – | – | – | – | – | – | – | – | – | – | – | mutagenic call (Test System: AMES SALMONELLA TYPHIMURIUM, Strain/Indicator: TA98, Metabolic Activation: NONE, Method: PREINCUBATION (PHOSPHATE-BUFFERED KCL OR SOLUTE-FREE WATER MEDIA)): inactive; negative; mutagenic call (Test System: AMES SALMONELLA TYPHIMURIUM, Strain/Indicator: TA98, Metabolic Activation: NONE, Method: STANDARD PLATE): inactive; negative; mutagenic call (Test System: AMES SALMONELLA TYPHIMURIUM, Strain/Indicator: TA98, Metabolic Activation: RAT, LIVER, S-9, AROCLOR 1254, Method: STANDARD PLATE): inactive; negative; mutagenic call (Test System: AMES SALMONELLA TYPHIMURIUM, Strain/Indicator: TA100, Metabolic Activation: NONE, Method: PREINCUBATION (PHOSPHATE-BUFFERED KCL OR SOLUTE-FREE WATER MEDIA)): inactive; negative; mutagenic call [14]: inactive; negative; mutagenic call (Test System: AMES SALMONELLA TYPHIMURIUM, Strain/Indicator: TA100, Metabolic Activation: RAT, LIVER, S-9, AROCLOR 1254, Method: STANDARD PLATE): inactive; negative; mutagenic call (Test System: AMES SALMONELLA TYPHIMURIUM, Strain/Indicator: TA104, Metabolic Activation: NONE, Method: PREINCUBATION (PHOSPHATE-BUFFERED KCL OR SOLUTE-FREE WATER MEDIA)): inactive; negative; mutagenic call (Test System: CHINESE HAMSTER V-79, Strain/Indicator: V-79 (HPRT)/6-THIOGUANINE, Metabolic Activation: NONE): inactive; negative
Brc1cccc(-c2ccccc2)c1 | – | inactive; negative | – | – | inactive; negative | – | – | inactive; negative | – | – | inactive; negative | – | mutagenic call (Test System: AMES SALMONELLA TYPHIMURIUM, Strain/Indicator: TA98, Metabolic Activation: HAMSTER, LIVER, S-9, AROCLOR 1254, Method: PREINCUBATION): inactive; negative; mutagenic call [15]: inactive; negative; mutagenic call (Test System: AMES SALMONELLA TYPHIMURIUM, Strain/Indicator: TA100, Metabolic Activation: HAMSTER, LIVER, S-9, AROCLOR 1254, Method: PREINCUBATION): inactive; negative; mutagenic call [16]: inactive; negative; mutagenic call (Test System: AMES SALMONELLA TYPHIMURIUM, Strain/Indicator: TA1535, Metabolic Activation: HAMSTER, LIVER, S-9, AROCLOR 1254, Method: PREINCUBATION): inactive; negative; mutagenic call (Test System: AMES SALMONELLA TYPHIMURIUM, Strain/Indicator: TA1535, Metabolic Activation: RAT, LIVER, S-9, AROCLOR 1254, Method: PREINCUBATION): inactive; negative; mutagenic call (Test System: AMES SALMONELLA TYPHIMURIUM, Strain/Indicator: TA1537, Metabolic Activation: HAMSTER, LIVER, S-9, AROCLOR 1254, Method: PREINCUBATION): inactive; negative; mutagenic call (Test System: AMES SALMONELLA TYPHIMURIUM, Strain/Indicator: TA1537, Metabolic Activation: RAT, LIVER, S-9, AROCLOR 1254, Method: PREINCUBATION): inactive; negative
